Experimental data taken from paper PMC9414910, “Optimized ^68Ga-Labeled Urea-Based PSMA-Targeted PET Tracers for Prostate Cancer” (Pharmaceuticals, 2022).

Tests used:
[1] = Partition coefficient, octanol–water system; type: physicochemical; conditions: octanol–water (v/v = 1:1), n = 3
Procedure: The partition coefficient of each novel radiotracer was determined using an octanol–water system (v/v = 1:1). The in vitro stability was determined using two systems (PBS and 5% BSA). The Ki value was measured by the NAALADase assay. The 22Rv1 and PC-3 cell lines were used for the cell-binding study and establishment of the tumor-bearing model (detailed information is shown in the Supplementary Materials).
PBS) and reported as log p ± SD. […]

22Rv1 cells (mild PSMA+) = test: Cell uptake / binding in 22Rv1 cells; type: cell-based, human; conditions: 60 min incubation, 37 °C
Text: Cell lines were kindly provided by the stem cell bank of the Chinese Academy of Sciences. The human prostate cancer epithelial cell lines 22Rv1 (mild PSMA+) and PC-3 (with no PSMA receptor) were used to evaluate the specific cell-binding affinity of the radiotracers, and the results were expressed as percentages of injected activity, IA%/10^6.
Cell Lines and Culture Condition
Cell lines were kindly provided by the stem cell bank, the Chinese Academy of Sciences. The human prostate cancer cell lines 22Rv1 ( mild PSMA positive) and PC3 (PSMA negative) were cultured in RPMI 1640 medium or F12K medium (CORNING, America), supplemented with 10% Fetal Bovine Serum
(GIBCO, The Netherlands) and 1% penicillin-streptomycin (CORNING, America) in a humidified incubator at 37 °C under 5% CO2. Each cell line was passaged when it was at around 80-90% confluence, and harvested using trypsin-ethylenediaminetetraacetic acid (trypsin-EDTA; 0.25% trypsin, 0.02% EDTA, all from KeyGEN BioTECH).
Cells were seeded separately in 24 well plates (1 x 10^5 cells in 1 mL medium/well) and incubated overnight, the medium was changed 2 h before the experiment. For the binding experiments, cells were incubated with novel […]
min, 30 min and 60 min (6 wells/time point). After incubation, the medium was removed and the cells were washed twice with ice-cold phosphate-buffered saline (0.5 mL). Finally, the cells were lysed by NaOH (0.5 M, 0.5 mL). Coincubation of 2-(phosphonomethyl) pentane-1,5-dioic acid […]
(2-PMPA) solution (2 μg/well) and each radiotracer for 60 min was conducted as the blocking experiment. The radioactivity of cells was measured by a γ-counter. The studies were performed in triplicate and the results were reported as the percentage injected activity (IA%/10^6 cells). […]

[2] = Blood pharmacokinetics in male ICR mice; type: in vivo; conditions: 7.4 MBq i.v., two-compartment model
Procedure: Injection of novel radiotracers or [68Ga]Ga-PSMA-617 or [68Ga]Ga-PSMA-11 […]
mice (5 mice/group), and the blood sample (5 μL) of each mouse was collected by cutting down the tail end at different time points post injection. The radioactivity of blood samples were measured by a γ-counter and the pharmacokinetics data was calculated using the WinNonlin software.
Figure S3. Time-activity curves of the blood samplesafter injection of 7.4 MBq of [68Ga]Ga-PSMA-4PY (A), [68Ga]Ga-PSMA-Q (B),[68Ga]Ga-PSMA-P (C), [68Ga]Ga-PSMA-617 (D), [68Ga]Ga-PSMA-11 (E), [68Ga]Ga-PSMA-Q-1 (F), [68Ga]Ga-PSMA-Q-2 (G) and [68Ga]Ga-PSMA-Q-3 (H).
(1 picture or pasted object on this page, not shown here)

22Rv1 tumor-bearing mice = test: Biodistribution in 22Rv1 tumor-bearing mice; conditions: for Uptake Blood, Mean / Uptake Bone, Mean / Uptake Heart, Mean / Uptake Kidney, Mean / Uptake Liver, Mean / Uptake Lung, Mean / Uptake Muscle, Mean / Uptake Spleen, Mean / Uptake Tumor (22Rv1), Mean: 0.74 MBq, n = 3; for Clearance profile in the kidneys: within 60 min p.i.
Procedure: (§1) The animal studies were approved by the institutional animal care and use committee of the Chinese PLA General Hospital. Healthy male ICR mice were injected with either a novel radiotracer (37 MBq in 150 μL) or saline (150 μL) for the radiotoxicity evaluation. […] Biodistribution and micro-PET studies were performed on 22Rv1 and PC-3 xenograft models, and 2-PMPA was used as the PSMA blocker (all details are shown in the Supplementary Materials).
BALB/c nude mice (male, 4-6 weeks) were inoculated subcutaneously with […]
100 mm3, the mice underwent biodistribution study and Micro-PET imaging.
The 22Rv1 tumor-bearing mice were injected with each novel radiotracer or […]
[…] Mice were sacrificed at different time points p.i. (10 min, 30 min, 60 min), tumors and interested organs were harvested, weighed and measured by a γ-counter, the results were expressed as the percentage of injected dose per gram (ID%/g).
Table S1. Uptake values for ex vivo tissues of [ 68Ga]Ga-PSMA-Q (0.74 MBq/mice) in 22Rv1 tumor-bearing mice (10, 30 and 60 min p.i., n = 3/time point).

22Rv1 tumors = test: Micro-PET imaging in 22Rv1 tumor-bearing mice; type: in vivo; conditions: 22Rv1 tumor, 60 min p.i., 7.4 MBq
Procedure: as §1
Table S9. Tumor-to-mu scle (T/M) ratio and tumor- to-kidney (T/K) rati o of radiotracers at 60 min p.i.
The Mice bearing 22Rv1 and PC-3 (n = 3/group) xenograft tumors were […]
Co-injection with 2-PMPA (50 μ g) and each novel tracer (7.4 MBq in 150 μL) was used for blocking. Then the mice were anesthetized with 3% (v/v) isoflurane and underwent Micro-PET scans with continuous 1% (v/v) isoflurane. The images were acquired at 60 min p.i.. In comparison, […]
into another group of mice (n = 3), and Micro-PET schedule was performed as […]
Imaging was performed on a Super Nova PET/CT scanner using a 100-mm-transaxial field of view for PET and 110-mm for CT.
Three-dimensional ordered-subsets expectation maximization reconstruction

[3] = biodistribution, 22Rv1 tumor-bearing mice, 60 min p.i.

| SMILES | Uptake in 22Rv1 cells (22Rv1 cells (mild PSMA+)) [IA%/10^6] | Elimination half-life [2] [min] | Uptake Blood, Mean (22Rv1 tumor-bearing mice; 10 min p.i.) [ID%/g] | Uptake Bone, Mean (22Rv1 tumor-bearing mice; 10 min p.i.) [ID%/g] | Uptake Heart, Mean (22Rv1 tumor-bearing mice; 10 min p.i.) [ID%/g] | Uptake Kidney, Mean (22Rv1 tumor-bearing mice; 10 min p.i.) [ID%/g] | Uptake Liver, Mean (22Rv1 tumor-bearing mice; 10 min p.i.) [ID%/g] | Uptake Lung, Mean (22Rv1 tumor-bearing mice; 10 min p.i.) [ID%/g] | Uptake Muscle, Mean (22Rv1 tumor-bearing mice; 10 min p.i.) [ID%/g] | Uptake Spleen, Mean (22Rv1 tumor-bearing mice; 10 min p.i.) [ID%/g] | Uptake Tumor (22Rv1), Mean (22Rv1 tumor-bearing mice; 10 min p.i.) [ID%/g] | Uptake Blood, Mean (22Rv1 tumor-bearing mice; 30 min p.i.) [ID%/g] | Uptake Bone, Mean (22Rv1 tumor-bearing mice; 30 min p.i.) [ID%/g] | Uptake Kidney, Mean (22Rv1 tumor-bearing mice; 30 min p.i.) [ID%/g] | Uptake Liver, Mean (22Rv1 tumor-bearing mice; 30 min p.i.) [ID%/g] | Uptake Lung, Mean (22Rv1 tumor-bearing mice; 30 min p.i.) [ID%/g] | Uptake Muscle, Mean (22Rv1 tumor-bearing mice; 30 min p.i.) [ID%/g] | Uptake Spleen, Mean (22Rv1 tumor-bearing mice; 30 min p.i.) [ID%/g] | Uptake Tumor (22Rv1), Mean (22Rv1 tumor-bearing mice; 30 min p.i.) [ID%/g] | Uptake Blood, Mean (22Rv1 tumor-bearing mice; 60 min p.i.) [ID%/g] | also measured |
| --- | --- | --- | --- | --- | --- | --- | --- | --- | --- | --- | --- | --- | --- | --- | --- | --- | --- | --- | --- | --- | --- |
| O=C([O-])CN1CCN(CC(=O)[O-])CCN(CC(=O)NCC2CCC(C(=O)NC(Cc3ccncc3)C(=O)NCCCCC(NC(=O)NC(CCC(=O)O)C(=O)O)C(=O)O)CC2)CCN(CC(=O)O)CC1.[68Ga+3] (centres unmarked) [[^68Ga]Ga-PSMA-4PY] | 3.01 ± 0.47 | 15.15 ± 0.32 | 1.68 | 0.56 | 1.87 | 2.15 | 1.53 | 0.83 | 0.67 | 0.59 | 1.56 | 0.68 | 0.28 | 2.08 | 0.78 | 0.50 | 0.31 | 0.47 | 1.83 | 0.21 | Log p pH = 7.4 [1]: −3.49 ± 0.01; Uptake Heart, Mean (22Rv1 tumor-bearing mice; 30 min p.i.): 0.86 ID%/g; Uptake Bone, Mean (22Rv1 tumor-bearing mice; 60 min p.i.): 0.21 ID%/g; Uptake Heart, Mean (22Rv1 tumor-bearing mice; 60 min p.i.): 0.58 ID%/g; Uptake Liver, Mean (22Rv1 tumor-bearing mice; 60 min p.i.): 0.47 ID%/g; Uptake Lung, Mean (22Rv1 tumor-bearing mice; 60 min p.i.): 0.25 ID%/g; Uptake Muscle, Mean (22Rv1 tumor-bearing mice; 60 min p.i.): 0.14 ID%/g; Uptake Spleen, Mean (22Rv1 tumor-bearing mice; 60 min p.i.): 0.33 ID%/g; Uptake Tumor (22Rv1), Mean (22Rv1 tumor-bearing mice; 60 min p.i.): 2.15 ID%/g; Uptake Tumor (22Rv1), Mean (22Rv1 tumor-bearing mice; 60 min p.i., listed as [^68Ga]Ga-PSMA-Q-4PY): 2.15 ± 0.46 ID%/g; Clearance profile in the kidneys (22Rv1 tumor-bearing mice): remained relatively stable; SUVmax of tumor (22Rv1 tumors): 0.69 ± 0.26 |
| O=C([O-])CN(CCN(CC(=O)[O-])Cc1cc(CCC(=O)NCCCCCC(=O)NCCCC[C@H](NC(=O)N[C@@H](CCC(=O)O)C(=O)O)C(=O)O)ccc1[O-])Cc1cc(CCC(=O)O)ccc1[O-].[68Ga+3].[OH3+] [[^68Ga]Ga-PSMA-11, reference compound] | 3.19 ± 0.27 | 16.69 ± 1.77 | 2.28 | 0.72 | 2.54 | 10.20 | 1.53 | 0.77 | 0.81 | 0.99 | 1.61 | 0.91 | 0.30 | 2.76 | 0.78 | 0.53 | 0.30 | 0.53 | 1.90 | 0.22 | Uptake Bone, Mean (22Rv1 tumor-bearing mice; 60 min p.i.): 0.17 ID%/g; Uptake Heart, Mean (22Rv1 tumor-bearing mice; 60 min p.i.): 0.53 ID%/g; Uptake Kidney, Mean (22Rv1 tumor-bearing mice; 60 min p.i.): 1.61 ID%/g; Uptake Liver, Mean (22Rv1 tumor-bearing mice; 60 min p.i.): 0.47 ID%/g; Uptake Lung, Mean (22Rv1 tumor-bearing mice; 60 min p.i.): 0.21 ID%/g; Uptake Muscle, Mean (22Rv1 tumor-bearing mice; 60 min p.i.): 0.14 ID%/g; Uptake Spleen, Mean (22Rv1 tumor-bearing mice; 60 min p.i.): 0.40 ID%/g; Uptake Tumor (22Rv1), Mean (22Rv1 tumor-bearing mice; 60 min p.i.): 2.38 ID%/g; SUVmax of tumor (22Rv1 tumors): 0.76 ± 0.18 |
| O=C([O-])CN1CCN(CC(=O)[O-])CCN(CC(=O)NCCCCCC(=O)NC(Cc2cnc3ccccc3c2)C(=O)NCCCCC(NC(=O)NC(CCC(=O)O)C(=O)O)C(=O)O)CCN(CC(=O)O)CC1.[68Ga+3] (centres unmarked) [[^68Ga]Ga-PSMA-Q-2] | 2.99 ± 0.15 | 20.22 ± 0.97 | 1.87 | 1.12 | 1.76 | 13.88 | 1.62 | 0.83 | 0.65 | 2.34 | 1.34 | 0.69 | 0.71 | 20.74 | 1.21 | 0.61 | 0.37 | 1.41 | 1.87 | 0.47 | Uptake Heart, Mean (22Rv1 tumor-bearing mice; 30 min p.i.): 1.08 ID%/g; Uptake Bone, Mean (22Rv1 tumor-bearing mice; 60 min p.i.): 0.53 ID%/g; Uptake Heart, Mean (22Rv1 tumor-bearing mice; 60 min p.i.): 0.50 ID%/g; Uptake Kidney, Mean (22Rv1 tumor-bearing mice; 60 min p.i.): 26.62 ID%/g; Uptake Liver, Mean (22Rv1 tumor-bearing mice; 60 min p.i.): 0.52 ID%/g; Uptake Lung, Mean (22Rv1 tumor-bearing mice; 60 min p.i.): 0.55 ID%/g; Uptake Muscle, Mean (22Rv1 tumor-bearing mice; 60 min p.i.): 0.16 ID%/g; Uptake Spleen, Mean (22Rv1 tumor-bearing mice; 60 min p.i.): 1.05 ID%/g; Uptake Tumor (22Rv1), Mean (22Rv1 tumor-bearing mice; 60 min p.i.): 2.15 ± 0.33 ID%/g; Uptake Tumor (22Rv1), Mean (22Rv1 tumor-bearing mice; 60 min p.i., listed as [68Ga]Ga-PSMA-Q-2): 2.15 ID%/g; Tumor-to-kidney (T/K) ratio (22Rv1 tumor-bearing mice; [3]): 0.08 ± 0.02; Tumor-to-muscle (T/M) ratio (22Rv1 tumor-bearing mice; [3]): 13.41 ± 0.39; Clearance profile in the kidneys (22Rv1 tumor-bearing mice): continuously accumulated in the kidneys; SUVmax of tumor (22Rv1 tumors): 0.47 ± 0.11 |
